The test system of this assay is SD rats. Description: Defensive withdrawal test in rats under stress (time to come out of a cylinder). Type of assay: in vivo, rat. To be noted: for antidepressant effect: same defensive withdrawal tests in SD rats as for L-isoleucine. On the procedure:
SD rats (10-week-old) were divided into two groups (10 rats in each group). One group (control group) was kept for 6 days with free access to food (standard AIN-76 diet manufactured by Nosan Corporation) and water. The other group (present invention group) was kept for 6 days with free access to food (standard AIN-76 diet containing 1% by mass of L-isoleucine) and water. Using these subject animals, depression-improving activity in rats under stress was tested according to the defensive withdrawal test method by Gutman, D. A. et al. (The Journal of Pharmacology and Experimental Therapeutics, 304 (2), 874 (2003)). That is, a rat (one from each group) was dropped, tail first, into an upright black cylinder 10 cm in diameter and 20 cm in length, and immediately covered with a lid. After 10 seconds, the cylinder was placed in an open field (100 cm long, 100 cm wide, and 45 cm high) made up of white acrylic boards, facing one corner, at a position 20 cm from the corner. […] The test was carried out under an illuminance of 200 1× in a soundproof room, and behavior of the rat was videotaped from above and observed using a monitor outside the soundproof room. Statistical processing was performed by two-sided Student's t-test.

Here are results for three compounds from patent publication US9060979B2, “Antidepressant” (OTSUKA PHARMACEUTICAL FACTORY, INC., priority 2006, dated 2015).

`CC[C@H](C)[C@H](N)C(=O)O` [L-isoleucine]: where the note is “SD rats, 10-week-old, 6 days free access to AIN-76 diet containing 1% by mass of the amino acid, observed 5 minutes, compared to control group”, the “time the rat took to come out of the cylinder” value is reported as “significantly shorter time to come out of the cylinder”.
As for `CC(C)[C@H](N)C(=O)O` [L-valine], the antidepressant effect result is “same antidepressant effect as that of L-isoleucine was confirmed”.
The same measure, in the same setting: the value for `CC(C)C[C@H](N)C(=O)O` [L-leucine] was “same antidepressant effect as that of L-isoleucine was confirmed”.
